We go through eight molecules from patent US4877881A, “Process of preparing pyrazoles, isoxazoles and analogs thereof having activity as 5-lipoxygenase inhibitors” (Warner-Lambert Company, priority 1988, dated 1989).

The target of test [1] is T1, 5-lipoxygenase (Homo sapiens, UniProt P09917).
T1 construct: The formation of 5-HETE in human leukocytes is considered a measure of 5-lipoxygenase activity; endogenous in cells; host or cells: leukocytes isolated from fresh human blood
T1 sequence (P09917 1-674): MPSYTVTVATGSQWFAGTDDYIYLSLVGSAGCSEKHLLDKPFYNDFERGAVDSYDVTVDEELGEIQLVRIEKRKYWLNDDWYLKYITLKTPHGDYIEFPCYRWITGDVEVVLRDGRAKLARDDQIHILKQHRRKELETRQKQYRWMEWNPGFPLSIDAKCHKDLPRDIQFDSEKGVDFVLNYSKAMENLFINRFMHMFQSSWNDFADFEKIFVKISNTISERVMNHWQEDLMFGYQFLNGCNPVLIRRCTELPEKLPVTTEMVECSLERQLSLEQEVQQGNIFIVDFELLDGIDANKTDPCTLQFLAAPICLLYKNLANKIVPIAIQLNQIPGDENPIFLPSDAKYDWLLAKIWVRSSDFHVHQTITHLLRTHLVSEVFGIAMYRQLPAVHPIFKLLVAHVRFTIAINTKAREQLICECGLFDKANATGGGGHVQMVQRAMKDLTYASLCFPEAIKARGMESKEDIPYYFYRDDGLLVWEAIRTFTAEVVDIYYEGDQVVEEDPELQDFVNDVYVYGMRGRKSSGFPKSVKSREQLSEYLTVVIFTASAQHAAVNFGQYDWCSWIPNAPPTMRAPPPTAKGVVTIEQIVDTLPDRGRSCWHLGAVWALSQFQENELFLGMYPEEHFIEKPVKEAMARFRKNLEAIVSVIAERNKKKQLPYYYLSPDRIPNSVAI
Nature of the test: 5-Lipoxygenase Assay Using Isolated Human Leukocytes (5LOA2), 5-HETE formation. The test is classed as cell-based. To be noted: inhibition of 5-HETE formation, arachidonic acid 20 μM, A23187 10 μM, read-out: 5-LO(IC50 in μM). As for the experimental part: 5-Lipoxygenase Assay Using Isolated Human Leukocytes (5LOA2)
The formation of 5-HETE in human leukocytes is considered a measure of 5-lipoxygenase activity. The protocol is described in the following.
Fresh heparinized or EDTA treated human blood is mixed with 6% dextran-3% dextrose in isotonic saline in the ratio 0.25 ml dextran solution per 1.0 ml blood. After mixing the blood is allowed to sit at room temperature for about 90 minutes while the RBC's settle. During this period, the plasma is removed with a plastic pipette to nalgens tubes.
The pellet, consisting of leukocytes and erythrocytes, is treated with 10 ml 0.87% ammonium chloride at room temperature for four minutes, lysing the red cells. At the end of four minutes the cells are diluted with a 2x volume of phosphate buffered saline, pH 7.4, and centrifuged for ten minutes. The cells are washed three times with the phosphate buffered saline. Any of the pelleted cell matter which is not easily resuspended is discarded during the washings--the material contains platelets (12-lipoxygenase activity).
After washing, the cells are resuspended in phosphate buffered saline containing 1.0 mM 'calcium and 0.5 mM magnesium. After counting, the cells are diluted to 1.5-2.0×10^7 leukocytes per milliliter.
To each polypropylene reaction tube is added 0.48 ml leukocytes in Ca-Mg phosphate buffered saline, pH 7.4; 1-5 μl test compound dissolved in DMSO and buffer; or DMSO for control tubes.
The tubes preincubate at 37° C. for five minutes.
The reaction is started by adding 20 μl of the following, 0.5 μl, 20 mM arachidonic acid--final concentration=20 μM; 1 μl, 5 mM calcium ionophore A23187--final concentration=10 μM; and 18.5 μl buffer.
The reaction proceeds for five minutes, then is stopped by adding 0.5 ml, 0.5 mM ice-cold Tris buffer, pH 8.0. The tubes are chilled on ice for ten minutes and then extracted three times with a total of 3.5 ml ethyl acetate (3.0 ml removed).
The tubes can be stored at this point. For extended storage, the tubes should be filled with nitrogen.
The ethyl acetate is evaporated with a Sorvall Speed-Vac. The residue is dissolved in ethanol. The tubes can also be stored at this point at -20° C. under nitrogen.
A portion of the ethanol solution is injected into the HPLC system for 5-HETE quantitation.
Injections are made automatically with a Waters WISP 710B. The pump is a Spectra Physics SP8700. […] An RP C-18 column is used. The solvent system is isocratic; the solvent is 70% methanol and 30% 0.01M sodium acetate, pH 5.7, pumped at 1.0 ml/min. […] Using a 15 cm Alltech Nucleosil C-18 5 μM column provides for a sample turnaround time of about 16 minutes.

Test [2] addresses T2, cyclooxygenase (Bos taurus, UniProt O62664).
T2 construct: The assay consists of incubating 2 mg bovine seminal vesicle powder; from tissue; host or cells: bovine seminal vesicle powder
T2 sequence (O62664 25-600): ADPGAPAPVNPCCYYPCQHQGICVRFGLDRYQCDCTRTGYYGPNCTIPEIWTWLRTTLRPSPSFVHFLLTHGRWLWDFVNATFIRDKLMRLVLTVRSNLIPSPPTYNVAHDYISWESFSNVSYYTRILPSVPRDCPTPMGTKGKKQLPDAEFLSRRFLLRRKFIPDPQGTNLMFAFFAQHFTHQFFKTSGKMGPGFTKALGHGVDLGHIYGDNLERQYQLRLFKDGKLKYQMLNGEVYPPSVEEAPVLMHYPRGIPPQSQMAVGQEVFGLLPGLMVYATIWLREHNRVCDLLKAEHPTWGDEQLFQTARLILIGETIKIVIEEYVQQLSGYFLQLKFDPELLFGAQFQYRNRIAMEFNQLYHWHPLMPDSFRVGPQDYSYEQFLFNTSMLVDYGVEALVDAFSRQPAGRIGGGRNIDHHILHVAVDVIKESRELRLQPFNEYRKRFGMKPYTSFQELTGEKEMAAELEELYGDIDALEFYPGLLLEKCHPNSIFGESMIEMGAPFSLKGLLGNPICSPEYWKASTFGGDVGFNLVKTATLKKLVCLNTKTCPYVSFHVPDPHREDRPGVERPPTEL
Nature of the test: Cyclooxygenase Enzyme Assay, bovine seminal vesicle (BSV), PGE2 formation. The test is classed as biochemical. Particulars: bovine seminal vesicle powder; 100 μM arachidonic acid, 20 minutes. As to the method:
Cyclooxygenase Enzyme Assay
Additionally, inhibition of cyclooxygenase is considered a measure of relevance to the pathophysiology of the above noted diseases.
The assay consists of incubating 2 mg bovine seminal vesicle powder with 2 mM epinephrine, 2.5 mM reduced glutathione, 100 μM arachidonic acid, and the test agent for 20 minutes. The reaction mixture is acidified and extracted with ethyl acetate (3×1.0 ml) and the pooled extract is evaporated to dryness using a Speed Vac Concentrator or under a stream of nitrogen. The residue was dissolved in ethanol.

Test [3] has as its target T3, 5-lipoxygenase (Rattus norvegicus, UniProt P12527).
T3 construct: ARBL/ARBC Whole Cell 5-Lipoxygenase and Cyclooxygenase Assays; endogenous in cells; host or cells: RBL-1 rat basophilic leukemia cells (American Type Culture Collection)
T3 sequence (P12527 1-673): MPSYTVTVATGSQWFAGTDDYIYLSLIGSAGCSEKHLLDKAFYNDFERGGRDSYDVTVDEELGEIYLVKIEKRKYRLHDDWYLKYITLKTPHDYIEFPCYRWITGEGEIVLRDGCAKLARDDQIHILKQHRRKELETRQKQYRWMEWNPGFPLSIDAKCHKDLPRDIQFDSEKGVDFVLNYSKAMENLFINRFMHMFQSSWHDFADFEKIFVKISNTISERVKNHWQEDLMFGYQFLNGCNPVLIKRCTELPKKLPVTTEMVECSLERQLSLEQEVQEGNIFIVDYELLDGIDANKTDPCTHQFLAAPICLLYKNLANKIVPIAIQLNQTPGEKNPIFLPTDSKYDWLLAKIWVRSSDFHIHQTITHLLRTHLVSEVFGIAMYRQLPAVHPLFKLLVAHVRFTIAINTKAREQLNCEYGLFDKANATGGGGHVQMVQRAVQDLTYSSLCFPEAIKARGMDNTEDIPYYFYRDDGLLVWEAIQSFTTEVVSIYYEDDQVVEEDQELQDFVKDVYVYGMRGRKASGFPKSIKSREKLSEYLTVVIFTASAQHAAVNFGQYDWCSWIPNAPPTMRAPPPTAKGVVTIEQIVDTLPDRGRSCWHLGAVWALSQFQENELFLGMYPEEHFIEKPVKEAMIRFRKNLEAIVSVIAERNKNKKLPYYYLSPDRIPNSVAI
Nature of the test: ARBL Whole Cell 5-Lipoxygenase Assay in RBL-1 cells (LTB4 RIA). The format is cell-based. Particulars: RBL-1 intact cell 5-lipoxygenase; A23187 5 μM. As to the method:
(§1) ARBL/ARBC Whole Cell 5-Lipoxygenase and Cyclooxygenase Assays
(§2) The rat basophilic leukemia cell line (RBL-1) was obtained from the American Type Culture Collection (Rockville, Md.).
(§3) Radioimmuno assay (RIA) kits of LTB4 and PGF2α were obtained from Amersham (Arlington Heights, Ill.) and Seragen (Boston, Mass.) respectively.
(§4) All tissue culture media were obtained from GIBO (Gran Island, N.Y.).
(§5) RBL-1 cells were grown in culture (suspension) in Eagle's minimum essential medium supplemented with 12% fetal bovine serum and 1:100 antibiotic-antimycotic mixture at 37° C. in an incubator supplied with air-5% carbon dioxide. Cells were harvested by centrifugation. They were washed with cold phosphate buffered saline pH 7.4 (PBS; NaCl, 7.1 g; Na2 HOP4, 1.15 g; KH2 PO4, 0.2 g; and KCl, 0.2 g/L). […] Calcium ionophore A23187 (5 μM) was added and cells were incubated for seven minutes at 37° C. The reaction was stopped by chilling the tubes in ice for ten minutes. Cells were separated by centrifugation and the supernatant was stored at -20°. Aliquots (100 μl) were analyzed for LTB4 and PGF2α using radioimmuno assay kits as provided by the supplier.

In test [4] the target is T4, cyclooxygenase (Rattus norvegicus, UniProt Q63921).
T4 construct: RBL-1 intact cell cyclooxygenase IC50 values; endogenous in cells; host or cells: RBL-1 rat basophilic leukemia cells (American Type Culture Collection)
T4 sequence (Q63921 27-602): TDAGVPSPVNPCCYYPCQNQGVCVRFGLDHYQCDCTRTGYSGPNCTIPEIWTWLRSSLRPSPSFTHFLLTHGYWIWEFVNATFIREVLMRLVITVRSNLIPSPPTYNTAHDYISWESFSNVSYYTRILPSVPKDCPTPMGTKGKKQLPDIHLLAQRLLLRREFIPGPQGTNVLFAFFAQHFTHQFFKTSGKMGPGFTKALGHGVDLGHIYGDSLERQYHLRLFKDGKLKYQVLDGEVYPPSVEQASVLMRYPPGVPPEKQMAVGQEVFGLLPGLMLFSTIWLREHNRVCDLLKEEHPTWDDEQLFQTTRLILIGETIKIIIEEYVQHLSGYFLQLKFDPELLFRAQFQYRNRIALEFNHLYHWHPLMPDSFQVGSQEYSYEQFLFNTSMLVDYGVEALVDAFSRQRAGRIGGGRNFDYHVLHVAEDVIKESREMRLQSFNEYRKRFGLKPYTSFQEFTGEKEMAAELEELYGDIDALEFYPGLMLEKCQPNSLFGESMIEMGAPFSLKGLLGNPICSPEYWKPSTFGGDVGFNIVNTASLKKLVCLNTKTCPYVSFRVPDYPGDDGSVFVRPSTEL
Nature of the test: ARBC Whole Cell Cyclooxygenase Assay in RBL-1 cells (PGF2α RIA). The test is classed as cell-based. To be noted: RBL-1 intact cell cyclooxygenase; A23187 5 μM. As for the experimental part:
as §1, §2, §3, §4, §5

Each structure is given as a SMILES string.

One may read the IC50 as the concentration needed to halve the response being measured. In the case of `COc1cc(CCc2cc(CCc3ccc(O)c(OC)c3)on2)ccc1O` [Example 12, 3,5-Bis[β-(4'-hydroxy-3'-methoxyphenyl)ethyl]isoxazole], the IC50 on 5-lipoxygenase [1] is 29 µM; on cyclooxygenase [2], 31 µM.
With `Oc1ccc(CCc2cc(CCc3ccc(O)cc3)[nH]n2)cc1` [Example 3, 3,5-Bis[β-(4'-hydroxyphenyl)ethyl]pyrazole], the IC50 turned out to be 15 µM at 5-lipoxygenase [1] and 44 µM on cyclooxygenase [2].
For `CCc1cc(C=Cc2ccc(O)c(OC)c2)n[nH]1` [Example 9, 3-[β-(4'-Hydroxy-3'-methoxyphenyl)ethenyl]-5-ethylpyrazole], in that order: 7.5 µM and 56 µM.
The matching figures for `COc1cc(C=Cc2cc(-c3ccccc3)[nH]n2)ccc1O` [Example 4, 3-[β-(4'-Hydroxy-3'-methoxyphenyl)ethenyl]-5-phenylpyrazole]: 4.3 µM and 40 µM.
For `COc1cc(CCc2cc(CCc3ccc(O)c(OC)c3)[nH]n2)ccc1O` [Example 2, 3,5-Bis[β-(4'-hydroxy-3'-methoxyphenyl)ethyl]pyrazole], in that order: 53 µM and 67 µM.
For `COc1cc(CCc2cc(C)n[nH]2)ccc1O` [Example 6, 3-[β-(4'-Hydroxy-3'-methoxyphenyl)ethyl]-5-methylpyrazole], at 5-lipoxygenase [1], the concentration for half-maximal inhibition (IC50) is greater than 20 µM.
`COc1ccc(C=Cc2cc(C)[nH]n2)cc1O` [Example 8, 3-[β-(4'-Methoxy-3'-hydroxyphenyl)ethenyl]-5-methylpyrazole]: on 5-lipoxygenase [1], the IC50 is greater than 20 µM.
Regarding `CCOC(=O)c1cc(C=Cc2ccc(O)c(OC)c2)n[nH]1` [Example 10, Ethyl-3-[β-(3-methoxy-4-hydroxyphenyl)ethenyl]-1H-pyrazole-5-carboxylate], the IC50 was 18 µM on 5-lipoxygenase [1], 5.2 µM against 5-lipoxygenase [3] and 11 µM on cyclooxygenase [4].
